Source: the CheMixHub viscosity set
± gives the uncertainty stated by the source.

Experiment: xn = mol fraction of the nth substance listed

For `Clc1ccccc1` + CCCCCC, the viscosity (303.15 K, 101.33 kPa, x2 = 0.0793) was 0.6623 ± 0.0066 mPa·s, the viscosity (303.15 K, 101.33 kPa, x2 = 0.1624) was 0.6095 ± 0.0061 mPa·s and the viscosity (303.15 K, 101.33 kPa, x2 = 0.2494) was 0.5578 ± 0.0057 mPa·s. The viscosity (303.15 K, 101.33 kPa, x2 = 0.3407) was 0.5101 ± 0.0053 mPa·s, the viscosity (303.15 K, 101.33 kPa, x2 = 0.4367) was 0.4658 ± 0.0049 mPa·s and the viscosity (303.15 K, 101.33 kPa, x2 = 0.5377) was 0.4254 ± 0.0045 mPa·s. It also gave a viscosity (303.15 K, 101.33 kPa, x2 = 0.644) of 0.3927 ± 0.0042 mPa·s, a viscosity (303.15 K, 101.33 kPa, x2 = 0.7562) of 0.3549 ± 0.0039 mPa·s and a viscosity (303.15 K, 101.33 kPa, x2 = 0.8747) of 0.3227 ± 0.0036 mPa·s. For the same molecule, the viscosity (313.15 K, 101.33 kPa, x2 = 0.0793) was 0.6011 ± 0.006 mPa·s, the viscosity (313.15 K, 101.33 kPa, x2 = 0.1624) was 0.5513 ± 0.0056 mPa·s and the viscosity (313.15 K, 101.33 kPa, x2 = 0.2494) was 0.5124 ± 0.0053 mPa·s. It also gave a viscosity (313.15 K, 101.33 kPa, x2 = 0.3407) of 0.4699 ± 0.0049 mPa·s, a viscosity (313.15 K, 101.33 kPa, x2 = 0.4367) of 0.4288 ± 0.0046 mPa·s and a viscosity (313.15 K, 101.33 kPa, x2 = 0.5377) of 0.3946 ± 0.0043 mPa·s. It also gave a viscosity (313.15 K, 101.33 kPa, x2 = 0.644) of 0.3647 ± 0.004 mPa·s, a viscosity (313.15 K, 101.33 kPa, x2 = 0.7562) of 0.3305 ± 0.0037 mPa·s and a viscosity (313.15 K, 101.33 kPa, x2 = 0.8747) of 0.3021 ± 0.0035 mPa·s. The viscosity (323.15 K, 101.33 kPa, x2 = 0.0793) was 0.5314 ± 0.0054 mPa·s, the viscosity (323.15 K, 101.33 kPa, x2 = 0.1624) was 0.4893 ± 0.0051 mPa·s and the viscosity (323.15 K, 101.33 kPa, x2 = 0.2494) was 0.4543 ± 0.0048 mPa·s. For the same molecule, the viscosity (323.15 K, 101.33 kPa, x2 = 0.3407) was 0.4164 ± 0.0044 mPa·s, the viscosity (323.15 K, 101.33 kPa, x2 = 0.4367) was 0.3835 ± 0.0042 mPa·s and the viscosity (323.15 K, 101.33 kPa, x2 = 0.5377) was 0.3551 ± 0.0039 mPa·s. The viscosity (323.15 K, 101.33 kPa, x2 = 0.644) was 0.3268 ± 0.0037 mPa·s, the viscosity (323.15 K, 101.33 kPa, x2 = 0.7562) was 0.2997 ± 0.0034 mPa·s and the viscosity (323.15 K, 101.33 kPa, x2 = 0.8747) was 0.2745 ± 0.0032 mPa·s.
Molecule `CCc1ccccc1` + COCCO has a viscosity (298.15 K, 101 kPa, x2 = 0.0558) of 0.65 ± 0.011 mPa·s, a viscosity (298.15 K, 101 kPa, x2 = 0.1525) of 0.679 ± 0.012 mPa·s and a viscosity (298.15 K, 101 kPa, x2 = 0.2511) of 0.717 ± 0.012 mPa·s. The viscosity (298.15 K, 101 kPa, x2 = 0.3504) was 0.766 ± 0.013 mPa·s, the viscosity (298.15 K, 101 kPa, x2 = 0.4525) was 0.831 ± 0.014 mPa·s and the viscosity (298.15 K, 101 kPa, x2 = 0.5021) was 0.869 ± 0.015 mPa·s. For the same molecule, the viscosity (298.15 K, 101 kPa, x2 = 0.5522) was 0.911 ± 0.015 mPa·s, the viscosity (298.15 K, 101 kPa, x2 = 0.6499) was 1.008 ± 0.017 mPa·s and the viscosity (298.15 K, 101 kPa, x2 = 0.75) was 1.131 ± 0.018 mPa·s. For the same molecule, the viscosity (298.15 K, 101 kPa, x2 = 0.853) was 1.291 ± 0.021 mPa·s, the viscosity (298.15 K, 101 kPa, x2 = 0.9546) was 1.488 ± 0.024 mPa·s and the viscosity (308.15 K, 101 kPa, x2 = 0.0558) was 0.548 ± 0.01 mPa·s. The viscosity (308.15 K, 101 kPa, x2 = 0.1525) was 0.577 ± 0.01 mPa·s, the viscosity (308.15 K, 101 kPa, x2 = 0.2511) was 0.612 ± 0.011 mPa·s and the viscosity (308.15 K, 101 kPa, x2 = 0.3504) was 0.655 ± 0.011 mPa·s. It also gave a viscosity (308.15 K, 101 kPa, x2 = 0.4525) of 0.708 ± 0.012 mPa·s, a viscosity (308.15 K, 101 kPa, x2 = 0.5021) of 0.738 ± 0.013 mPa·s and a viscosity (308.15 K, 101 kPa, x2 = 0.5522) of 0.771 ± 0.013 mPa·s. The viscosity (308.15 K, 101 kPa, x2 = 0.6499) was 0.844 ± 0.014 mPa·s, the viscosity (308.15 K, 101 kPa, x2 = 0.75) was 0.933 ± 0.016 mPa·s and the viscosity (308.15 K, 101 kPa, x2 = 0.853) was 1.043 ± 0.017 mPa·s. For the same molecule, the viscosity (308.15 K, 101 kPa, x2 = 0.9546) was 1.175 ± 0.02 mPa·s.
Work on `Clc1ccccc1` + CCCCCCCCCC yielded a viscosity (308.15 K, 101 kPa, x1 = 0.1146) of 0.7161 ± 0.012 mPa·s, a viscosity (308.15 K, 101 kPa, x1 = 0.1985) of 0.703 ± 0.012 mPa·s and a viscosity (308.15 K, 101 kPa, x1 = 0.31) of 0.6849 ± 0.012 mPa·s. The viscosity (308.15 K, 101 kPa, x1 = 0.3792) was 0.6723 ± 0.011 mPa·s, the viscosity (308.15 K, 101 kPa, x1 = 0.4894) was 0.6588 ± 0.011 mPa·s and the viscosity (308.15 K, 101 kPa, x1 = 0.6146) was 0.6526 ± 0.011 mPa·s. The viscosity (308.15 K, 101 kPa, x1 = 0.6949) was 0.6521 ± 0.011 mPa·s, the viscosity (308.15 K, 101 kPa, x1 = 0.8073) was 0.6598 ± 0.011 mPa·s and the viscosity (308.15 K, 101 kPa, x1 = 0.9173) was 0.6691 ± 0.011 mPa·s. It also gave a viscosity (313.15 K, 101 kPa, x1 = 0.1146) of 0.6733 ± 0.011 mPa·s, a viscosity (313.15 K, 101 kPa, x1 = 0.1985) of 0.6572 ± 0.011 mPa·s and a viscosity (313.15 K, 101 kPa, x1 = 0.31) of 0.6458 ± 0.011 mPa·s. The viscosity (313.15 K, 101 kPa, x1 = 0.3792) was 0.6387 ± 0.011 mPa·s, the viscosity (313.15 K, 101 kPa, x1 = 0.4894) was 0.6287 ± 0.011 mPa·s and the viscosity (313.15 K, 101 kPa, x1 = 0.6146) was 0.624 ± 0.011 mPa·s. It also gave a viscosity (313.15 K, 101 kPa, x1 = 0.6949) of 0.6222 ± 0.011 mPa·s, a viscosity (313.15 K, 101 kPa, x1 = 0.8073) of 0.6228 ± 0.011 mPa·s and a viscosity (313.15 K, 101 kPa, x1 = 0.9173) of 0.6302 ± 0.011 mPa·s.
Work on `COC(C)(C)C` + CCCCCC yielded a viscosity (303.15 K, 101 kPa, x1 = 0.1579) of 0.314 ± 0.003 mPa·s, a viscosity (303.15 K, 101 kPa, x1 = 0.2829) of 0.318 ± 0.003 mPa·s and a viscosity (303.15 K, 101 kPa, x1 = 0.3671) of 0.321 ± 0.003 mPa·s. For the same molecule, the viscosity (303.15 K, 101 kPa, x1 = 0.4436) was 0.323 ± 0.003 mPa·s, the viscosity (303.15 K, 101 kPa, x1 = 0.5404) was 0.327 ± 0.003 mPa·s and the viscosity (303.15 K, 101 kPa, x1 = 0.604) was 0.33 ± 0.003 mPa·s. The viscosity (303.15 K, 101 kPa, x1 = 0.7122) was 0.335 ± 0.003 mPa·s and the viscosity (303.15 K, 101 kPa, x1 = 0.8674) was 0.342 ± 0.003 mPa·s.
In the case of `CC(F)(F)F` + FC(F)C(F)(F)F, the viscosity (298.15 K, 101 kPa, x1 = 0.248) is reported as 0.1286 ± 0.0029 mPa·s, the viscosity (298.15 K, 101 kPa, x1 = 0.5) is reported as 0.1205 ± 0.0028 mPa·s and the viscosity (298.15 K, 101 kPa, x1 = 0.759) is reported as 0.117 ± 0.0027 mPa·s. For the same molecule, the viscosity (313.15 K, 101 kPa, x1 = 0.248) was 0.1036 ± 0.0024 mPa·s.
`COCCOCCOCCOCCOC` + CC(C)O gave a viscosity (298.15 K, 101 kPa, x1 = 0.0021) of 2.074 ± 0.033 mPa·s, a viscosity (298.15 K, 101 kPa, x1 = 0.0042) of 2.059 ± 0.032 mPa·s and a viscosity (298.15 K, 101 kPa, x1 = 0.00994) of 2.022 ± 0.032 mPa·s. It also gave a viscosity (298.15 K, 101 kPa, x1 = 0.014) of 1.999 ± 0.031 mPa·s, a viscosity (298.15 K, 101 kPa, x1 = 0.0152) of 1.996 ± 0.035 mPa·s and a viscosity (298.15 K, 101 kPa, x1 = 0.025) of 1.934 ± 0.03 mPa·s. It also gave a viscosity (298.15 K, 101 kPa, x1 = 0.0355) of 1.941 ± 0.031 mPa·s, a viscosity (298.15 K, 101 kPa, x1 = 0.0719) of 1.86 ± 0.03 mPa·s and a viscosity (298.15 K, 101 kPa, x1 = 0.0734) of 1.883 ± 0.032 mPa·s. For the same molecule, the viscosity (298.15 K, 101 kPa, x1 = 0.0994) was 1.83 ± 0.029 mPa·s, the viscosity (308.15 K, 101 kPa, x1 = 0.0021) was 1.555 ± 0.025 mPa·s and the viscosity (308.15 K, 101 kPa, x1 = 0.0042) was 1.549 ± 0.025 mPa·s. For the same molecule, the viscosity (308.15 K, 101 kPa, x1 = 0.00994) was 1.53 ± 0.025 mPa·s, the viscosity (308.15 K, 101 kPa, x1 = 0.014) was 1.52 ± 0.024 mPa·s and the viscosity (308.15 K, 101 kPa, x1 = 0.0152) was 1.52 ± 0.027 mPa·s. It also gave a viscosity (308.15 K, 101 kPa, x1 = 0.025) of 1.512 ± 0.024 mPa·s, a viscosity (308.15 K, 101 kPa, x1 = 0.0355) of 1.484 ± 0.024 mPa·s and a viscosity (308.15 K, 101 kPa, x1 = 0.0719) of 1.465 ± 0.024 mPa·s. It also gave a viscosity (308.15 K, 101 kPa, x1 = 0.0734) of 1.489 ± 0.026 mPa·s, a viscosity (308.15 K, 101 kPa, x1 = 0.0994) of 1.444 ± 0.023 mPa·s and a viscosity (318.15 K, 101 kPa, x1 = 0.0021) of 1.188 ± 0.02 mPa·s. It also gave a viscosity (318.15 K, 101 kPa, x1 = 0.0042) of 1.185 ± 0.019 mPa·s, a viscosity (318.15 K, 101 kPa, x1 = 0.00994) of 1.179 ± 0.019 mPa·s and a viscosity (318.15 K, 101 kPa, x1 = 0.014) of 1.177 ± 0.019 mPa·s. It also gave a viscosity (318.15 K, 101 kPa, x1 = 0.0152) of 1.18 ± 0.019 mPa·s, a viscosity (318.15 K, 101 kPa, x1 = 0.025) of 1.18 ± 0.019 mPa·s and a viscosity (318.15 K, 101 kPa, x1 = 0.0355) of 1.172 ± 0.019 mPa·s. The viscosity (318.15 K, 101 kPa, x1 = 0.0719) was 1.163 ± 0.019 mPa·s, the viscosity (318.15 K, 101 kPa, x1 = 0.0734) was 1.167 ± 0.019 mPa·s and the viscosity (318.15 K, 101 kPa, x1 = 0.0994) was 1.159 ± 0.019 mPa·s.
